Data published in patent US7514076B2, “Antitumor agents” (priority 1997, dated 2009).

Tests used:
[1] = Time course of tumor accumulation of PEG-XO-high (XO activity in tumor homogenate, pterin substrate); assay type: in vivo, ddY mice
Experimental: The time course of the tumor accumulation of PEG-XO-high was examined by measuring the enzyme activity derived from PEG-XO-high in the tumor tissue. Tumor bearing mice were prepared as described above. PEG-XO-high (2 U/ml, 100 μl) was injected intravenously (i.v.) to the mice. After a given period, the tumor tissue was removed as described above. The tumor tissue was then homogenized with three volumes of 20 mM potassium phosphate buffer pH 7.6 which contained 2 mM ethylenediaminetetraacetic acid, 2 mM amidinophenylmethanesulfonyl fluoride, 10 mM dithiothreitol, 0.5 μg/ml of leupeptin. The homogenates were centrifuged at 10,000 g for 20 min, and each supernatant was applied to a FPLC system with a Superose 6 HR 10/30 column similar to the previous section. The enzyme activity of the PEG-XO-high fraction was determined fluorometrically, i.e., the formation of fluorescent isoxanthopterin from pterin was measured with an excitation at 345 nm and an emission at 390 nm, in which hypoxanthine was replaced with pterin as substrate. The quantification was made using the calibration curve of the authentic isoxanthopterin (Aldrich Chemical, Milwaukee, Wis.).

[2] = Enzyme activity of PEG-XO: formation of uric acid from hypoxanthine (absorbance at 290 nm); assay type: biochemical; conditions: for XO activity: 50 μM hypoxanthine, 50 mM sodium phosphate buffer pH 7.4, room temperature; for enzyme activity compared with native XO: relative to native XO
Experimental: The enzyme activity was determined by quantifying the formation of uric acid from hypoxanthine by measuring the increase of absorbance at 290 nm, an absorption maximum of uric acid. The initial concentration of the substrate hypoxanthine was 50 μM. The enzyme reaction was carried out in 50 mM sodium phosphate buffer (pH 7.4) at room temperature. One unit of XO activity is defined as the velocity of the formation of 1 μmol of uric acid per min.

[3] = tested on: S-180 solid tumor; experiment: Antitumor activity of PEG-XO in vivo with hypoxanthine; design: species or system ddY mice; conditions: for suppression of the tumor growth: FIG. 1
Experimental: When the tumors became palpable (5-7 mm in diameter), usually 7 days after implantation, the treatment was resumed.
Hypoxanthine (13.3 mg/kg) was injected intraperitoneally six times, each time more than 6 hrs after the last time, as indicated by asterisks (*) in the FIG. 1 to 3.

[4] = tested on: S180 solid tumor; experiment: Antitumor effect of PEG-DAO on S180 solid tumor model; assay type: in vivo, ddY mice; conditions: 1.5 U i.v. day 7, D-proline 0.5 mmol i.p. 2 and 4 hrs after; FIG. 10
Experimental: S180 cells (2×10^6 cells) were inoculated subcutaneously to ddY mice. Seven days after tumor inoculation, mice were injected i.v. with 1.5 U of native DAO or PEG-DAO followed by D-proline 0.5 mmol, i.p. (2 and 4 hrs after DAO administration).
In the FIG. 10, —●— indicates the result of treated mice by administration of PEG-DAO by […]. injection with D-proline, and —▴— indicates the result of administration of native DAO similarly with D-proline. —◯— indicates the result of control mice without any drug treatment Data are means (n=4-8)±SE (standard error). […] Thus, in vivo activity of PEG-DAO is excellent.

[5] = Systemic side effect of PEG-XO-high/hypoxanthine; assay type: in vivo; conditions: PEG-XO/hypoxanthine therapy
[6] = Bray and Swann 1972; confirmed by the inventors; cited from earlier work
[7] = 2 administrations 0.6 U/mouse, hypoxanthine 13.3 mg/kg i.p.
[8] = 15 days after tumor inoculation, 2 times 0.6 U/mouse i.v. (day 7, 9), hypoxanthine 13.3 mg/kg i.p. six times

In the case of “PEG-XO-high: Xanthine oxidase conjugated with succinimide activated-PEG (Mw 5000), 49% of amino groups modified”, the “XO activity in S-180 solid tumor tissue after injection” value ([1]; 0.2 U/mouse i.v., 24 hrs, FIG. 6B) is reported as “a new large peak of XO activity was observed”, the “PEG-XO-high activity in tumor over time” value ([1]; FIG. 7) is reported as “increased in a time dependent manner” and the XO activity [2] is reported as 1.15 U/mg protein. For the same substance, the “enzyme activity compared with native XO” value [2] was 54%, the “suppression of the tumor growth” value [3, 7] was “significant (p<0.05) suppression of the tumor growth” and the “antitumor activity” value ([3]; 3 administrations 0.6 U/mouse, hypoxanthine 13.3 mg/kg i.p., FIG. 2) was “remarkable antitumor activity”. The weight of tumor ([3]; 13 days after tumor inoculation, 3 times 0.6 U/mouse i.v. (day 7, 8, 9), hypoxanthine 13.3 mg/kg i.p. 6 times) was 0.13 ± 0.08 g, the weight of tumor [3, 8] was 0.22 ± 0.05 g and the “inhibition of tumor growth” value ([3]; day 13, 3 administrations 0.6 U/mouse, hypoxanthine 13.3 mg/kg i.p.) was 77%. The “inhibition of the tumor growth” value ([3]; day 15, 2 administrations 0.6 U/mouse, hypoxanthine 13.3 mg/kg i.p.) was 39%.

In the case of “PEG-XO-low: Xanthine oxidase conjugated with succinimide activated-PEG (Mw 5000), 17% of amino groups modified”, the XO activity [2] is reported as 2.40 U/mg protein and the “enzyme activity compared with native XO” value [2] is reported as 110%.

For D-amino acid oxidase [native DAO], the “suppression of the tumor growth” value [4] was “no significant reduction of the tumor growth”.

With “PEG-XO: Chemically conjugated XO with poly(ethylene glycol); generic term, in vivo work used PEG-XO-high” the “hematotoxicity or liver toxicity” value [5] was “No serious or significant hematotoxicity or liver toxicity”.

For xanthine oxidase [Native-XO], the XO activity [2] was 2.12 U/mg protein, the “suppression of the tumor growth” value [3, 7] was “no significant reduction of the tumor growth” and the weight of tumor [3, 8] was 0.31 ± 0.03 g. For the same substance, the “antitumor effect of native XO (literature)” value [6] was “insignificant”.
